KD and binding data for five molecules are collected here from PMC10214512 (2023).

The structures appear in SMILES notation.

Experiment [1] relates to Cy5 NRAS 5'UTR G4 (RNA, G4) UGUGGGAGGGGCGGGUCUGGGUGC
As to the kind of experiment: fluorescence quenching (Cy5). The note with it: 100 mM KCl, 10 mM MgCl2.

Experiment [2] has the same test system. In words: MST thermophoresis. The note with it: 100 mM KCl, 10 mM MgCl2; binding only at millimolar concentrations, KD not established; label of G4 construct not stated for this assay.
[3] abbreviates: 20 mM HEPES pH 7.4, 25 °C, group value close to 200 nM.

In general, KD refers to the constant that tells how readily two partners part at equilibrium. Read a high KD as weaker binding. The molecule `NCCOc1cc(C(=O)Nc2cc(OCCN)c3ccccc3n2)nc(C(=O)Nc2cc(OCCN)c3ccccc3n2)c1` registered a dissociation constant KD in experiment [1] (20 mM HEPES pH 7.4, 25 °C read after 30 min at 4 °C, 50 nM RNA) of 26 nM.
In experiment [1] (setting [3]), `NCCOc1cc(NC(=O)c2cc(OCc3cn(CCC(=O)O)nn3)cc(C(=O)Nc3cc(OCCN)c4ccccc4n3)n2)nc2ccccc12` displayed a KD of 191 nM.
Turning to `NCCOc1cc(NC(=O)c2cc(OCc3cn(CCOCCOCCOCCOCCOCCn4ccnc4)nn3)cc(C(=O)Nc3cc(OCCN)c4ccccc4n3)n2)nc2ccccc12`, the KD in experiment [1] (setting [3]) amounted to 137 nM. The KD values of the last two molecules are within 1.5-fold of each other.
Still for that read-out and setting: the result for `NCCOc1cc(NC(=O)c2cc(OCc3cn(CCOCCOCCOCCn4ccnc4)nn3)cc(C(=O)Nc3cc(OCCN)c4ccccc4n3)n2)nc2ccccc12` reads 211 nM.
Consider `[N-]=[N+]=NCCOCCOCCOCCOCCOCCn1ccnc1`, for which the binding entry in experiment [2] is given as “weak”.
